Earlier results as cited in patent publication US6660296B2, “Sustained-release microgranules containing diltiazem as active principle” (Laboratories des Produits Ethiques Ethypharim, priority 1995, dated 2003).

Conditions: neutral or basic pH; Diltiazem or its pharmaceutically acceptable salts

Solubility: sparingly soluble
SMILES: COc1ccc([C@@H]2Sc3ccccc3N(CCN(C)C)C(=O)[C@@H]2OC(C)=O)cc1 [Diltiazem]
